Laboratory results: ChEMBL document CHEMBL2034891, “Discovery, design and synthesis of Y-shaped peroxisome proliferator-activated receptor δ agonists as potent anti-obesity agents in vivo” (Eur J Med Chem, 2012)

Assays:
[1] = target: T1, Peroxisome proliferator-activated receptor alpha (Homo sapiens, UniProt Q07869); assay: Transactivation activity at human PPARalpha expressed in african green monkey CV1 cells after 24 hrs by luciferase reporter gene assay; assay type: cell-based, CV-1
T1 sequence (Q07869 whole entry): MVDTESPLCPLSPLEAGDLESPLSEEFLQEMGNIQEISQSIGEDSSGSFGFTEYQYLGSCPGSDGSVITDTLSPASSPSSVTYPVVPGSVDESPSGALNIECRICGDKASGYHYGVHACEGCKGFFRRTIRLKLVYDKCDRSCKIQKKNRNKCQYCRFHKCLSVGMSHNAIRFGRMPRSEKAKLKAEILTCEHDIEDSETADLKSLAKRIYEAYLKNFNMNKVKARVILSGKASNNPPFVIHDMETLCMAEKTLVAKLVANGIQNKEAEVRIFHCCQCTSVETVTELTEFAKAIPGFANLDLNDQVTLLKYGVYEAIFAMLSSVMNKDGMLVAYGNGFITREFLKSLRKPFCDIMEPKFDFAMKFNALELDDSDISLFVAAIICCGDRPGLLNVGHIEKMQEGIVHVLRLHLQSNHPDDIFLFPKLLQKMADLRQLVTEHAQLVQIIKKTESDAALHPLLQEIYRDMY

Homo sapiens = organism: Homo sapiens; assay: Selectivity ratio of EC50 for human PPARalpha to EC50 for human PPARdelta
[2] = target: T2, Peroxisome proliferator-activated receptor gamma (Homo sapiens, UniProt P37231); assay: Transactivation activity at human PPARgamma expressed in african green monkey CV1 cells after 24 hrs by luciferase reporter gene assay; assay type: cell-based, CV-1
T2 sequence (P37231 whole entry): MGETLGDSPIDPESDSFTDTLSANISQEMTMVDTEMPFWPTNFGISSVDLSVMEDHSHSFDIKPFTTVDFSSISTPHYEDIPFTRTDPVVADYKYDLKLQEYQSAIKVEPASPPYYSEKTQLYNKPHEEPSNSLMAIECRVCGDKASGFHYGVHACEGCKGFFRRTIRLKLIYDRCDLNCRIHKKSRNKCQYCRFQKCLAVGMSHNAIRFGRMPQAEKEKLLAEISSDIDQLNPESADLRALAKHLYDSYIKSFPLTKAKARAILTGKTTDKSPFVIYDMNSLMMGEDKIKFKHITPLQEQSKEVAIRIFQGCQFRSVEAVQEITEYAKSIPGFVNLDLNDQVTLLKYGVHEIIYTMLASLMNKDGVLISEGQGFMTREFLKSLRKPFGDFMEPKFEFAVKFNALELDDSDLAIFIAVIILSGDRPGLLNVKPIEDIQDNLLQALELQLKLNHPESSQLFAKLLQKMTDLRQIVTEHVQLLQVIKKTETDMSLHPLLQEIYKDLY

[3] = target: T3, Peroxisome proliferator-activated receptor delta (Homo sapiens, UniProt Q03181); assay: Transactivation activity at human PPARdelta expressed in african green monkey CV1 cells after 24 hrs by luciferase reporter gene assay; assay type: cell-based, CV-1
T3 sequence (Q03181 whole entry): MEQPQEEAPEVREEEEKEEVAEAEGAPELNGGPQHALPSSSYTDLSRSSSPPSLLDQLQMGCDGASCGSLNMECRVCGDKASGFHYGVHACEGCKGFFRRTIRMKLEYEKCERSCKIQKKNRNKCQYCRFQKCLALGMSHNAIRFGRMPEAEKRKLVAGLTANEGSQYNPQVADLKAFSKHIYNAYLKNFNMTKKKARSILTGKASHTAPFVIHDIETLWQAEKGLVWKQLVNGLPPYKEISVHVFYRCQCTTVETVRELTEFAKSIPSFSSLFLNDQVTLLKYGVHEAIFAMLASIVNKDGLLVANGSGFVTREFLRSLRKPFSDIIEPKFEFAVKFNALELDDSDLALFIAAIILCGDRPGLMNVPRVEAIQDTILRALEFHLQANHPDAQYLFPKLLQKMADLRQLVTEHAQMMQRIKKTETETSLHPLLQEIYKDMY

Mus musculus = assay: Antiobesity activity in high-fat diet fed C57BL/6 mouse assessed as decrease in body weight gain at 10 mg/kg, po QD relative to control; assay type: functional; design: scale not given: the % may be the effect or the level left

Row | EC50 [1] [nM] | Ratio EC50 (Homo sapiens) | EC50 [2] [nM] | EC50 [3] [nM] | Structure (SMILES) | Activity (Mus musculus) [%]
1 | > 10000 | 10000 | > 10000 | 1.2 | Cc1cc(SC(Cc2c(F)cccc2Cl)c2sc(-c3ccc(C(F)(F)F)cc3)nc2C)ccc1OCC(=O)O (stereo unspecified) | –
2 | > 10000 | – | > 10000 | – | Cc1cc(SC(Cc2c3ccccc3cc3ccccc23)c2sc(-c3ccc(C(F)(F)F)cc3)nc2C)ccc1OCC(=O)O (stereo unspecified) | –
3 | 861 | – | > 10000 | 1.1 | Cc1cc(SC(CC2CC2)c2sc(-c3ccc(C(F)(F)F)cc3)nc2C)ccc1OCC(=O)O (stereo unspecified) | –
4 | > 10000 | 10000 | > 10000 | 4.6 | Cc1cc(SC(Cc2ccc(F)cc2F)c2sc(-c3ccc(C(F)(F)F)cc3)nc2C)ccc1OCC(=O)O (stereo unspecified) | –
5 | > 10000 | 10000 | > 10000 | 2.8 | Cc1cc(SC(Cc2c(Cl)cccc2Cl)c2sc(-c3ccc(C(F)(F)F)cc3)nc2C)ccc1OCC(=O)O (stereo unspecified) | –
6 | > 10000 | – | > 10000 | 6.7 | Cc1cc(SC(Cc2cc(F)c(F)c(F)c2)c2sc(-c3ccc(C(F)(F)F)cc3)nc2C)ccc1OCC(=O)O (stereo unspecified) | –
7 | > 10000 | – | > 10000 | – | Cc1cc(SC(CCCCCCCc2ccccc2)c2sc(-c3ccc(C(F)(F)F)cc3)nc2C)ccc1OCC(=O)O (stereo unspecified) | –

Further lines, the molecule ahead of its results:

Row | Structure (SMILES) | EC50 [1] [nM] | Ratio EC50 (Homo sapiens) | EC50 [2] [nM] | EC50 [3] [nM] | Activity (Mus musculus) [%]
8 | Cc1cc(SC(c2sc(-c3ccc(C(F)(F)F)cc3)nc2C)C(c2ccccc2)c2ccccc2)ccc1OCC(=O)O (stereo unspecified) | > 10000 | – | > 10000 | 523 | –
9 | Cc1cc(SC(C)c2sc(-c3ccc(C(F)(F)F)cc3)nc2C)ccc1OCC(=O)O (stereo unspecified) | 136 | – | > 10000 | 1.8 | –
10 | Cc1cc(SC(CCCCCc2ccccc2)c2sc(-c3ccc(C(F)(F)F)cc3)nc2C)ccc1OCC(=O)O (stereo unspecified) | > 10000 | – | > 10000 | – | –
11 | Cc1cc(SC(CC(C)C)c2sc(-c3ccc(C(F)(F)F)cc3)nc2C)ccc1OCC(=O)O (stereo unspecified) | 592 | – | > 10000 | 1.1 | –
12 | Cc1cc(SC(Cc2ccc([N+](=O)[O-])cc2)c2sc(-c3ccc(C(F)(F)F)cc3)nc2C)ccc1OCC(=O)O (stereo unspecified) | > 10000 | – | > 10000 | 60 | –
13 | Cc1cc(SC(Cc2c(F)cccc2F)c2sc(-c3ccc(C(F)(F)F)cc3)nc2C)ccc1OCC(=O)O (stereo unspecified) | > 10000 | 10000 | > 10000 | 2.1 | 35
